Laboratory results published in PMC4430089 (Journal of peptide science : an official publication of the …, 2014).

Tests used:
[1] = test system: 3T3 Swiss mice fibroblasts; assay: Cell viability, Trypan Blue assay; conditions: 15 μM peptide in PBS, 30 min exposure, three repeats on two plates
[2] = Circular dichroism: conformation and thermal unfolding; format: physicochemical; conditions: for FF @ 37°C (folded fraction): calculated from CD molar ellipticity at 224 nm: FF=CD37-CD80/CDfolded-CD80
[3] = test system: 3T3 Swiss mice fibroblasts; assay: Cellular uptake by confocal microscopy; format: cell-based; conditions: 15 μM peptide in PBS, 30 min; for Preferential accumulation site within the cell: confocal microscopy without DAPI; for Cellular uptake (FITC fluorescence from cells): confocal microscopy, 37°C
[4] = test system: Jurkat E6 human leukemia cells; assay: Cellular uptake by flow cytometry; format: cell-based; conditions: 15μM peptide, 10 min

Row | Substance | Cytotoxicity compared to control (cell viability) [1] | FF @ 37°C (folded fraction) [2] | Preferential accumulation site within the cell [3] | Cellular uptake (FITC fluorescence from cells) [3] | Fluorescence intensity of cells lower than cells incubated with V2 [4] | Number of cells that uptake the peptide [4] [%] | Tm lower than Tm of V1 ([2]; difference of CD Tm values) [°C]
1 | FITC-AβGG-POGPOGPOGPOGPOGPOGPOGPOG-RRGRRG [Peptide V1] | no significant (p>0.05) toxicity | 0.90 | accumulates to larger extend in cytoplasm than V2, with only small amount reaching the nucleus | effectively penetrate the cellular membrane | about 20% | 71.2 | 
2 | FITC-AβGG-POGPOGPOGPOGPOGPOGPOGPOG-RRRRRR [Peptide V2] | no significant (p>0.05) toxicity | 0.82 | stronger preference to accumulate within the nuclear bodies | effectively penetrate the cellular membrane |  | 72.8 | 3.2
